Laboratory results from PMC10747733, “N-Substituted 2-(Benzenosulfonyl)-1-Carbotioamide Derivatives Exert Antimicrobial and Cytotoxic Effects via Aldehyde Dehydrogenase Pathway: Synthesis, In Silico and In Vitro Studies” (Pharmaceuticals, 2023).
In brackets after ≈: the same amount, converted by molar mass.

Assays:
Experiment in all cases: Broth microdilution antimicrobial activity
Assay type in all cases: cell-based
[1] = tested on: Bacillus cereus ATCC 10876; settings: for MBC / MIC: ATCC10876
Text: (§1) Reference strains of microorganisms that came from American Type Culture Collection (ATCC) (Manassas, VA, USA) were used for this study. The representative Gram-positive bacteria were as follows: Staphylococcus aureus ATCC 25923, Staphylococcus aureus ATCC 29213, Staphylococcus aureus ATCC 43300, Staphylococcus epidermidis ATCC 12228, Enterococcus faecalis ATCC 29212, Micrococcus luteus ATCC 10240, Bacillus subtilis ATCC 6633 and Bacillus cereus ATCC 10876. While, those of Gram-negative bacteria were as follows: Bordetella bronchiseptica ATCC 4617, Escherichia coli ATCC 25922, Klebsiella pneumoniae ATCC 13883, Proteus mirabilis ATCC 12453, Salmonella Typhimurium ATCC 14028 and Pseudomonas aeruginosa ATCC 9027. Moreover, the following fungi belonging to yeasts were used: Candida albicans ATCC 10231, Candida albicans ATCC 2091, Candida parapsilosis ATCC 22019, Candida glabrata ATCC 90030 and Candida krusei ATCC 14243.
(§2) The new compounds WZ1–WZ4 were assayed for both antibacterial and antifungal activity using the broth microdilution method in accordance with the European Committee on Antimicrobial Susceptibility Testing (EUCAST) and Clinical and Laboratory Standards Institute (CLSI) guidelines. The microorganisms were grown at 35 °C for 18–24 h on appropriate media (nutrient agar and Sabouraud for bacteria and fungi, respectively) (BioMaxima S.A., Lublin, Poland). Next, microbial suspensions with an optical density of 0.5 McFarland standard scale (in sterile 0.85% NaCl) were prepared. In turn, the tested compounds were initially diluted at 50 mg/mL in dimethyl sulfoxide (DMSO) and the broth microdilution method was used to assess their minimum inhibitory concentrations (MICs). For these studies, selective broth Mueller-Hinton (MH) (BioMaxima S.A., Lublin, Poland) and RPMI (Roswell Park Memorial Institute) 1640 with MOPS (3-(N-Morpholino)propanesulfonic acid) (Sigma-Aldrich Chemicals, St. Louis, MO, USA) were used for bacteria and fungi, respectively. The antimicrobial effect of compounds WZ1–WZ4 was determined in the concentration range from 2000 to 0.98 µg/mL.
(§3) Then, the microbial suspensions were introduced into each well of the microplate and incubated for 18–24 h at 35 °C. […] The reference drugs ciprofloxacin or vancomycin (against bacteria) and nystatin (against fungi) (Sigma-Aldrich Chemicals, St. Louis, MO, USA) were also used. Next, the values of the minimum bactericidal concentration (MBC) and minimum fungicidal concentration (MFC) of WZ1–WZ4 were assessed. For this purpose, the cultures from each MIC determination well were transferred to a suitable solid medium and incubated under appropriate conditions. The lowest concentrations of compounds without microbial growth were read as MBC or MFC. The studies were performed in triplicate and representative data were gathered.
(§4) In turn, the MBC/MIC or MFC/MIC ratios were used to assess bactericidal/fungicidal (MBC/MIC or MFC/MIC ≤ 4) and bacteriostatic/fungistatic (MBC/MIC or MFC/MIC > 4) effect of these compounds [93].

[2] = tested on: Bacillus subtilis ATCC 6633; settings: for MBC / MIC: ATCC6633
Text: as §1, §2, §3, §4

[3] = tested on: Bordetella bronchiseptica ATCC 4617; settings: for MBC / MIC: ATCC4617
Text: as §1, §2, §3, §4

[4] = tested on: Candida albicans ATCC 10231; settings: for MFC: ATCC10231, read-out: MFC; for MIC: ATCC10231, read-out: MIC
Text: as §1, §2, §3, §4

[5] = tested on: Candida albicans ATCC 2091; settings: for MFC: ATCC2091, read-out: MFC; for MIC: ATCC2091, read-out: MIC
Text: as §1, §2, §3, §4

[6] = tested on: Candida glabrata ATCC 90030; settings: for MFC / MIC: Nakaseomyces glabratus; for MFC: ATCC90030, read-out: MFC; for MIC: ATCC90030, read-out: MIC
Text: as §1, §2, §3, §4

[7] = tested on: Candida krusei ATCC 14243; settings: for MFC / MIC: Pichia kudriavzevii; for MFC: ATCC14243, read-out: MFC; for MIC: ATCC14243, read-out: MIC
Text: as §1, §2, §3, §4

[8] = tested on: Candida parapsilosis ATCC 22019; settings: for MFC / MIC: Lodderomyces parapsilosis; for MFC: ATCC22019, read-out: MFC; for MIC: ATCC22019, read-out: MIC
Text: as §1, §2, §3, §4

[9] = tested on: Enterococcus faecalis ATCC 29212; settings: Enterococcus faecalis ATCC 29212; for MBC / MIC: ATCC29212; for MBC: read-out: MBC; for MIC: read-out: MIC
Text: as §1, §2, §3, §4

[10] = tested on: Escherichia coli ATCC 25922; settings: for MBC / MIC: ATCC25922
Text: as §1, §2, §3, §4

[11] = tested on: Klebsiella pneumoniae ATCC 13883; settings: for MBC / MIC: ATCC13883
Text: as §1, §2, §3, §4

[12] = tested on: Micrococcus luteus ATCC 10240; settings: for MBC / MIC: ATCC10240
Text: as §1, §2, §3, §4

[13] = tested on: Proteus mirabilis ATCC 12453; settings: for MBC / MIC: ATCC12453
Text: as §1, §2, §3, §4

[14] = tested on: Pseudomonas aeruginosa ATCC 9027; settings: for MBC / MIC: ATCC9027
Text: as §1, §2, §3, §4

[15] = tested on: Salmonella Typhimurium ATCC 14028; settings: for MBC / MIC: Salmonella enterica
Text: as §1, §2, §3, §4

[16] = tested on: Staphylococcus aureus ATCC 25923; settings: for MBC / MIC: ATCC25923
Text: as §1, §2, §3, §4

[17] = tested on: Staphylococcus aureus ATCC 29213; settings: Staphylococcus aureus ATCC 29213; for MBC / MIC: ATCC29213
Text: as §1, §2, §3, §4

[18] = tested on: Staphylococcus aureus ATCC 43300; settings: Staphylococcus aureus ATCC 43300; for MBC / MIC: ATCC43300
Text: as §1, §2, §3, §4

[19] = tested on: Staphylococcus epidermidis ATCC 12228; settings: for MBC / MIC: ATCC12228
Text: as §1, §2, §3, §4

`CNC(=S)NNS(=O)(=O)c1ccccc1` [WZ4, 2-(Benzenesulfonyl)-N-Methylhydrazine-1-Carbothioamide] was tested, and the MBC/MIC [1] was 2, the MBC [1] was 125 µg/mL (≈ 0.51 mM) and the MIC [1] was 62.5 µg/mL (≈ 0.255 mM). For the same molecule, the MBC/MIC [2] was 16, the MBC [2] was 2000 µg/mL (≈ 8.15 mM) and the MIC [2] was 125 µg/mL (≈ 0.51 mM). The MBC/MIC [3] was greater than 1, the MBC [3] was greater than 2000 µg/mL and the MIC [3] was greater than 2000 µg/mL. The MFC/MIC [4] was 2, the MFC [4] was 1000 µg/mL (≈ 4.08 mM) and the MIC [4] was 500 µg/mL (≈ 2.04 mM). For the same molecule, the MFC/MIC [5] was 4, the MFC [5] was 1000 µg/mL (≈ 4.08 mM) and the MIC [5] was 250 µg/mL (≈ 1.02 mM). It also gave an MFC/MIC [6] of 4, an MFC [6] of 500 µg/mL (≈ 2.04 mM) and an MIC [6] of 125 µg/mL (≈ 0.51 mM). It also gave an MFC/MIC [7] of 4, an MFC [7] of 2000 µg/mL (≈ 8.15 mM) and an MIC [7] of 500 µg/mL (≈ 2.04 mM). The MFC/MIC [8] was 8, the MFC [8] was 1000 µg/mL (≈ 4.08 mM) and the MIC [8] was 125 µg/mL (≈ 0.51 mM). The MBC [9] was greater than 2000 µg/mL, the MIC [9] was 1000 µg/mL (≈ 4.08 mM) and the MBC/MIC [9] was greater than 2. For the same molecule, the MBC/MIC [10] was greater than 1, the MBC [10] was greater than 2000 µg/mL and the MIC [10] was greater than 2000 µg/mL. The MBC/MIC [11] was greater than 1, the MBC [11] was greater than 2000 µg/mL and the MIC [11] was greater than 2000 µg/mL. For the same molecule, the MBC/MIC [12] was 2, the MBC [12] was 500 µg/mL (≈ 2.04 mM) and the MIC [12] was 250 µg/mL (≈ 1.02 mM). The MBC/MIC [13] was greater than 1, the MBC [13] was greater than 2000 µg/mL and the MIC [13] was greater than 2000 µg/mL. The MBC/MIC [14] was greater than 1, the MBC [14] was greater than 2000 µg/mL and the MIC [14] was greater than 2000 µg/mL. It also gave an MBC/MIC [15] greater than 1, an MBC [15] greater than 2000 µg/mL and an MIC [15] greater than 2000 µg/mL. It also gave an MBC/MIC [16] greater than 4, an MBC [16] greater than 2000 µg/mL and an MIC [16] of 500 µg/mL (≈ 2.04 mM). It also gave an MBC [17] greater than 2000 µg/mL, an MIC [17] of 1000 µg/mL (≈ 4.08 mM) and an MBC/MIC [17] greater than 2. For the same molecule, the MBC [18] was 2000 µg/mL (≈ 8.15 mM), the MIC [18] was 500 µg/mL (≈ 2.04 mM) and the MBC/MIC [18] was 4. The MBC/MIC [19] was 4, the MBC [19] was 500 µg/mL (≈ 2.04 mM) and the MIC [19] was 125 µg/mL (≈ 0.51 mM).
`O=S(=O)(NNC(=S)NC1CCCCC1)c1ccccc1` [WZ1, 2-(Benzenesulfonyl)-N-Cyclohexylhydrazine-1-Carbothioamide] was tested, and the MBC/MIC [1] was greater than 4, the MBC [1] was greater than 2000 µg/mL and the MIC [1] was 500 µg/mL (≈ 1.6 mM). The MBC/MIC [2] was greater than 4, the MBC [2] was greater than 2000 µg/mL and the MIC [2] was 500 µg/mL (≈ 1.6 mM). It also gave an MBC/MIC [3] greater than 1, an MBC [3] greater than 2000 µg/mL and an MIC [3] greater than 2000 µg/mL. The MFC/MIC [4] was greater than 1, the MFC [4] was greater than 2000 µg/mL and the MIC [4] was greater than 2000 µg/mL. For the same molecule, the MFC/MIC [5] was greater than 1, the MFC [5] was greater than 2000 µg/mL and the MIC [5] was greater than 2000 µg/mL. For the same molecule, the MFC/MIC [6] was greater than 1, the MFC [6] was greater than 2000 µg/mL and the MIC [6] was greater than 2000 µg/mL. The MFC/MIC [7] was greater than 1, the MFC [7] was greater than 2000 µg/mL and the MIC [7] was greater than 2000 µg/mL. For the same molecule, the MFC/MIC [8] was greater than 1, the MFC [8] was greater than 2000 µg/mL and the MIC [8] was greater than 2000 µg/mL. The MBC [9] was greater than 2000 µg/mL, the MIC [9] was 2000 µg/mL (≈ 6.38 mM) and the MBC/MIC [9] was greater than 1. For the same molecule, the MBC/MIC [10] was greater than 1, the MBC [10] was greater than 2000 µg/mL and the MIC [10] was greater than 2000 µg/mL. It also gave an MBC/MIC [11] greater than 1, an MBC [11] greater than 2000 µg/mL and an MIC [11] greater than 2000 µg/mL. The MBC/MIC [12] was greater than 4, the MBC [12] was greater than 2000 µg/mL and the MIC [12] was 500 µg/mL (≈ 1.6 mM). For the same molecule, the MBC/MIC [13] was greater than 1, the MBC [13] was greater than 2000 µg/mL and the MIC [13] was greater than 2000 µg/mL. It also gave an MBC/MIC [14] greater than 1, an MBC [14] greater than 2000 µg/mL and an MIC [14] greater than 2000 µg/mL. For the same molecule, the MBC/MIC [15] was greater than 1, the MBC [15] was greater than 2000 µg/mL and the MIC [15] was greater than 2000 µg/mL. It also gave an MBC/MIC [16] greater than 4, an MBC [16] greater than 2000 µg/mL and an MIC [16] of 500 µg/mL (≈ 1.6 mM). The MBC [17] was greater than 2000 µg/mL, the MIC [17] was 500 µg/mL (≈ 1.6 mM) and the MBC/MIC [17] was greater than 4. For the same molecule, the MBC [18] was greater than 2000 µg/mL, the MIC [18] was 500 µg/mL (≈ 1.6 mM) and the MBC/MIC [18] was greater than 4. The MBC/MIC [19] was greater than 8, the MBC [19] was greater than 2000 µg/mL and the MIC [19] was 250 µg/mL (≈ 0.798 mM).
